pIC50: −log10 of the molar value.
Target: Tyrosine-protein kinase Lck (Bos taurus)
Test: Ability to inhibit protein-tyrosine kinase activity of p56lck (isolated from bovine thymus) in vitro.

SMILES | pIC50
COc1ccc2c(=O)c(C(=O)O)c(-c3ccc(O)cc3)oc2c1 | 2.99
COC(=O)CC(=O)c1ccc(OC)cc1O | 2.94
COc1ccc2c(=O)c(C(=O)O)c(-c3ccc([N+](=O)[O-])cc3)oc2c1 | < 2.70
CCOC(=O)CC(=O)c1ccccc1O | < 2.70
COC(=O)c1c(-c2ccc([N+](=O)[O-])cc2)oc2cc(OCc3ccccc3)cc(OCc3ccccc3)c2c1=O | < 2.70
O=C(O)c1c(-c2ccc([N+](=O)[O-])cc2)oc2cc(O)cc(=O)c-2c1O | < 2.70
O=C(O)c1c(-c2ccc([N+](=O)[O-])cc2)oc2ccccc2c1=O [2-(4-nitrophenyl)-4-oxo-4H-chromene-3-carboxylic acid] | < 2.70
O=c1cc(-c2ccc([N+](=O)[O-])cc2)oc2cc(O)ccc12 | < 2.70
O=C(O)c1c(-c2ccc(Br)cc2)oc2ccccc2c1=O | < 2.70
COC(=O)CC(=O)c1cc(OC)ccc1O | < 2.70
COC(=O)CC(=O)c1ccccc1O | < 2.70
COC(=O)CC(=O)c1ccc(O)c(O)c1O | < 2.70
CCOC(=O)CC(=O)c1c(O)cc(OCc2ccccc2)cc1OCc1ccccc1 | < 2.70
Nc1ccc(-c2cc(=O)c3cc(O)ccc3o2)cc1 [2-(4-aminophenyl)-6-hydroxy-4H-chromen-4-one] | 5.92
O=C(O)c1c(-c2ccc(O)cc2)oc2ccccc2c1=O | 2.80
Nc1ccc(-c2cc(=O)c3ccc(O)cc3o2)cc1 [7-Hydroxy-flavone, 6] | 3.86
COc1ccc2oc(-c3ccc([N+](=O)[O-])cc3)c(C(=O)O)c(=O)c2c1 | < 2.70
O=c1cc(-c2ccc([N+](=O)[O-])cc2)oc2ccc(O)cc12 | < 2.70

Next, values leading:

pIC50 | SMILES
< 2.70 | COC(=O)c1c(-c2ccc(NC(C)=O)cc2)oc2ccc(OC)cc2c1=O
< 2.70 | COC(=O)c1c(-c2ccc(OCc3ccccc3)cc2)oc2ccc(OC)cc2c1=O [2-(4-Benzyloxy-phenyl)-6-methoxy-4-oxo-4H-chromene-3-carboxylic acid methyl ester]
< 2.70 | COC(=O)c1c(-c2ccc([N+](=O)[O-])cc2)oc2cc(OC)ccc2c1=O [methyl 7-methoxy-2-(4-nitrophenyl)-4-oxo-4H-chromene-3-carboxylate]
< 2.70 | COC(=O)c1c(-c2ccc(OCc3ccccc3)cc2)oc2ccccc2c1=O
< 2.70 | COC(=O)c1c(-c2ccc(OC)cc2)oc2ccccc2c1=O [methyl 2-(4-methoxyphenyl)-4-oxo-4H-chromene-3-carboxylate]
4.59 | COc1cc(-c2cc(=O)c3ccccc3o2)cc(OC)c1O [3',5'-dimethoxy-4'-hydroxyflavone]
3.09 | COC(=O)c1c(-c2ccc(N)cc2)oc2ccccc2c1=O
< 2.70 | COC(=O)c1c(-c2cc(OC)c(OC)c(OC)c2)oc2ccccc2c1=O
< 2.70 | COc1ccc(-c2oc3ccccc3c(=O)c2C(=O)O)cc1OC [2-(3,4-Dimethoxy-phenyl)-4-oxo-4H-chromene-3-carboxylic acid]
3.36 | COC(=O)c1c(-c2ccc(O)cc2)oc2ccccc2c1=O
< 2.70 | COc1ccc(-c2oc3ccccc3c(=O)c2C(=O)O)cc1 [2-(4-methoxyphenyl)-4-oxo-4H-chromene-3-carboxylic acid]
< 2.70 | COC(=O)c1c(-c2ccc(NC(=O)c3cc(OC)c(OC)c(OC)c3)cc2)oc2ccccc2c1=O
< 2.70 | COC(=O)c1c(-c2ccc(Br)cc2)oc2ccccc2c1=O
< 2.70 | COc1cc(-c2oc3ccccc3c(=O)c2C(=O)O)cc(OC)c1OC
< 2.70 | COc1cc(OC)cc(-c2oc3ccccc3c(=O)c2C(=O)O)c1
< 2.70 | COC(=O)c1c(-c2ccc(O)cc2)oc2cc(OC)ccc2c1=O
< 2.70 | COC(=O)c1c(-c2ccc([N+](=O)[O-])cc2)oc2ccccc2c1=O
< 2.70 | COC(=O)c1c(-c2ccc(OC)c(OC)c2)oc2ccccc2c1=O [methyl 2-(3,4-dimethoxyphenyl)-4-oxo-4H-chromene-3-carboxylate]
< 2.70 | COC(=O)c1c(-c2cc(OC)cc(OC)c2)oc2ccccc2c1=O
< 2.70 | COC(=O)c1c(-c2ccc(O)cc2)oc2ccc(OC)cc2c1=O
